Assay results as given in ChEMBL document CHEMBL5316357, “Discovery of Linvencorvir (RG7907), a Hepatitis B Virus Core Protein Allosteric Modulator, for the Treatment of Chronic HBV Infection” (J Med Chem, 2023).
Active and inactive are the calls of the source. No cut-off for these calls is given here.

Tests used:
Hepatitis B virus [1] = test: Antiviral activity against AAV-Hepatitis B virus infected in C57BL/6 mouse assessed as reduction of serum HBV DNA level at 6 to 20 mg/kg,po qd for 8 weeks by quantitative real-time PCR analysis; assay type: functional, organism-based; details: dose 6-20 mg/kg
Hepatitis B virus [2] = test: Antiviral activity against AAV-Hepatitis B virus infected in C57BL/6 mouse assessed as reduction of serum HBsAg level at 6 to 20 mg/kg,po qd for 8 weeks by chemiluminescence immunoassay; assay type: functional, organism-based; details: dose 6-20 mg/kg
Hepatitis B virus [3] = test: Antiviral activity against HBV stably transfected in human HepG2.2.15 cells assessed as reduction of HBV DNA replication incubated for 5 days by q-PCR analysis; assay type: functional, organism-based; details: HepG2 2.2.15, 120 h
[4] = Cytotoxicity against human HepDE19 cells assessed as reduction in cell viability incubated for 5 days by CCK-8 assay; assay type: functional; details: HepDE19, 120 h, time 5 day
Hepatitis B virus [5] = test: Antiviral activity against AAV-Hepatitis B virus infected in C57BL/6 mouse assessed as reduction of serum HBeAg level at 6 to 20 mg/kg,po qd for 8 weeks by chemiluminescence immunoassay; assay type: functional, organism-based; details: dose 6-20 mg/kg
[6] = Induction of CYP3A4 mRNA expression level in human hepatocytes at 10 uM incubated for 24 hrs by q-PCR analysis; assay type: ADME, cell-based, Hepatocyte
[7] = Clearance in human liver microsomes at 1 uM measured upto 30 mins in presence of NADPH by LC-MS/MS analysis; assay type: ADME, Microsome
[8] = biological target: Voltage-gated inwardly rectifying potassium channel KCNH2 (Homo sapiens, UniProt Q12809); test: (§1) Inhibition of hERG stably expressed in CHO cells by whole-cell voltage-clamp assay; assay type: toxicity, cell-based
Sequence of Voltage-gated inwardly rectifying potassium channel KCNH2 (Q12809 whole entry): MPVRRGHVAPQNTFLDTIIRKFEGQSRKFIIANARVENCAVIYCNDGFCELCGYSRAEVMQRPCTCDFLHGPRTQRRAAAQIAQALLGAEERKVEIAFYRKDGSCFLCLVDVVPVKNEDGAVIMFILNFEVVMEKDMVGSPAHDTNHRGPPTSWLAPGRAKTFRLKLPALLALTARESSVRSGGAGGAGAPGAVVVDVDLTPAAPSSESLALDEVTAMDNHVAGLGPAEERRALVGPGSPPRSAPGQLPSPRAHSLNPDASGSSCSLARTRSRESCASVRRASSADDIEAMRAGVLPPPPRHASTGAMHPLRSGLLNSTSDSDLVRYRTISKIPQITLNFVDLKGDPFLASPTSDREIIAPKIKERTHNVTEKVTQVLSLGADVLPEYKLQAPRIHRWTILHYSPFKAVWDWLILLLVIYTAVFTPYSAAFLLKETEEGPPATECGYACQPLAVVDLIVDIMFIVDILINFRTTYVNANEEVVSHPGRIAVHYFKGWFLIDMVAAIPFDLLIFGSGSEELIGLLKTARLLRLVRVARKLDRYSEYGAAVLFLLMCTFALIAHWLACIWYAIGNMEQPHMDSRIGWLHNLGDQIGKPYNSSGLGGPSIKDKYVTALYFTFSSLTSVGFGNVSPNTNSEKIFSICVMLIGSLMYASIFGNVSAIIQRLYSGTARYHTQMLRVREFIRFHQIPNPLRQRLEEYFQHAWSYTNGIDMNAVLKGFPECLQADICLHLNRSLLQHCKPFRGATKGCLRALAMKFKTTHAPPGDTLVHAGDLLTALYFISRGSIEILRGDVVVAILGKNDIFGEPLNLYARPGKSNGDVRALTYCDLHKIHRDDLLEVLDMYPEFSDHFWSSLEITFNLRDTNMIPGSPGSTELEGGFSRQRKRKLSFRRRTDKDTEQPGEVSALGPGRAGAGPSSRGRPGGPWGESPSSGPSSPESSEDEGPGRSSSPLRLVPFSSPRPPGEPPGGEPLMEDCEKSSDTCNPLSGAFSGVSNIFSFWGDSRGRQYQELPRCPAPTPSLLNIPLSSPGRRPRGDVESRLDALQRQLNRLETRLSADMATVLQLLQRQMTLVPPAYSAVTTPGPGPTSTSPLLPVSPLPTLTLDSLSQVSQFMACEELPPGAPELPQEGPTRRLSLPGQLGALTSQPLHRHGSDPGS

hERG = hERG (Homo sapiens, UniProt Q12809); test: as §1; assay type: toxicity, cell-based; details: human, CHO cells stably expressing hERG
Sequence of hERG (Q12809 whole entry): as above

[9] = Half life in rat plasma at 1 mg/kg,iv; assay type: ADME, organism-based
[10] = Half life in mouse plasma at 1 mg/kg,iv; assay type: ADME, organism-based
[11] = Volume of distribution at steady state in rat plasma at 1 mg/kg,iv; assay type: ADME, organism-based; details: read-out: Vdss
[12] = Volume of distribution at steady state in mouse plasma at 1 mg/kg,iv; assay type: ADME, organism-based; details: read-out: Vdss
[13] = Clearance in rat plasma at 1 mg/kg,iv; assay type: ADME, organism-based
[14] = Clearance in mouse plasma at 1 mg/kg,iv; assay type: ADME, organism-based
[15] = AUC (0-infinity) in rat plasma at 1 mg/kg,iv; assay type: ADME, organism-based; design: dose 1 mg/kg, route iv
[16] = AUC (0-infinity) in mouse plasma at 1 mg/kg,iv; assay type: ADME, organism-based; design: dose 1 mg/kg, route iv; details: in vivo
[17] = AUC (0-infinity) in rat plasma at 3 mg/kg,po; assay type: ADME, organism-based; design: dose 3 mg/kg, route po
[18] = AUC (0-infinity) in mouse plasma at 3 mg/kg,po; assay type: ADME, organism-based; design: dose 3 mg/kg, route po; details: in vivo
[19] = Oral bioavailability in rat plasma at 3 mg/kg; assay type: ADME, organism-based
[20] = Oral bioavailability in mouse plasma at 3 mg/kg; assay type: ADME, organism-based; details: in vivo
[21] = AUC (0-infinity) in mouse liver at 3 mg/kg,po; assay type: ADME, organism-based; design: dose 3 mg/kg, route po
[22] = Ratio of AUC (0 to infinity) in liver to plasma of mouse at 3 mg/kg,po; assay type: ADME, organism-based; details: read-out: Ratio AUC
Hepatitis B virus [23] = test: Antiviral activity against AAV-Hepatitis B virus infected in C57BL/6 mouse assessed as reduction of serum HBV DNA level at 0.03 mg/kg,po qd for 8 weeks by quantitative real-time PCR analysis; assay type: functional, organism-based
Hepatitis B virus [24] = test: Antiviral activity against AAV-Hepatitis B virus infected in C57BL/6 mouse assessed as reduction of serum HBsAg level at 0.03 mg/kg,po qd for 8 weeks by chemiluminescence immunoassay; assay type: functional, organism-based
Hepatitis B virus [25] = test: Antiviral activity against AAV-Hepatitis B virus infected in C57BL/6 mouse assessed as reduction of serum HBeAg level at 0.03 mg/kg,po qd for 8 weeks by chemiluminescence immunoassay; assay type: functional, organism-based
[26] = Clearance in human hepatocyte at 2 uM measured upto 120 mins by LC-MS/MS analysis; assay type: ADME, cell-based; details: hepatocytes
[27] = Clearance in rat hepatocyte at 2 uM measured upto 120 mins by LC-MS/MS analysis; assay type: ADME, cell-based; details: hepatocytes
[28] = Octanol-water partition coefficient, logD of the compound at pH 7.4; assay type: physicochemical

EC50 (Hepatitis B virus [3]) | Activity [6] | CLhep predicted at 1 µM [7] | half-life [9] | half-life [10] | Vd [11] | Vd [12] | clearance [13] | clearance [14] | AUC [16] | AUC [18] | F [20] | AUC(0-inf) [21] | Kp [22] | Compound | CC50 [4] | IC50 [8] | IC20 (hERG) | other results
1 nM | 4% | 5 mL/min/kg | 1.5 h | 0.5 h | 5.4 L/kg | 5.2 L/kg | 87 mL/min/kg | 248 mL/min/kg | 65 ng·h/mL | 0.4 ng·h/mL | 0.7% | 279 ng·h/mL | 607 | CCOC(=O)C1=C(CN2C[C@H]3CN(C(C)(C)C)C(=O)N3C[C@@H]2C(=O)O)NC(c2nccs2)=N[C@H]1c1ccc(F)cc1Cl | > 100000 nM | 10000 nM | 2200 nM | AUC ([15]; in vivo): 188 ng·h/mL; AUC ([17]; in vivo): 2.7 ng·h/mL; F ([19]; in vivo, po, 3 mg/kg): 1.4%
– | – | – | – | – | – | – | – | – | – | – | – | – | – | C=C1[C@H](CO)[C@@H](O)C[C@@H]1n1cnc2c(=O)[nH]c(N)nc21 | – | – | – | Activity (Hepatitis B virus [23]): Active; Activity (Hepatitis B virus [24]): inactive; Activity (Hepatitis B virus [25]): inactive
3 nM | 1% | 0.4 mL/min/kg | 1.8 h | 0.62 h | 4.8 L/kg | 1.3 L/kg | 65 mL/min/kg | 35 mL/min/kg | 471 ng·h/mL | 154 ng·h/mL | 33% | 3760 ng·h/mL | 24 | CCOC(=O)C1=C(CN2CCN3C(=O)N(CC(C)(C)C(=O)O)C[C@@H]3C2)NC(c2nccs2)=N[C@H]1c1cccc(F)c1Cl | > 100000 nM | > 20000 nM | > 10000 nM | AUC(0-inf) ([15]; plasma): 257 ng·h/mL; AUC(0-inf) ([17]; plasma): 26 ng·h/mL; bioavailability ([19]; plasma): 10%; CLhep predicted at 2 µM [26]: 7 mL/min/kg; CLhep predicted at 2 µM [27]: 17 mL/min/kg; logD [28]: 1.69

Compound | EC50 (Hepatitis B virus [3]) | Activity [6] | CLhep predicted at 1 µM [7] | half-life [9] | half-life [10] | Vd [11] | Vd [12] | clearance [13] | clearance [14] | AUC [16] | AUC [18] | F [20] | AUC(0-inf) [21] | Kp [22] | CC50 [4] | IC50 [8] | IC20 (hERG) | other results
CCOC(=O)C1=C(CN2CCN3C(=O)N(CC(C)(C)C(=O)O)C[C@@H]3C2)N=C(c2nccs2)N[C@H]1c1cccc(F)c1C [LINVENCORVIR] | 6 nM | – | – | – | – | – | – | – | – | – | – | – | – | – | > 100000 nM | – | – | Activity (Hepatitis B virus [1]): Dose-Dependent Effect; Activity (Hepatitis B virus [2]): Dose-Dependent Effect; Activity (Hepatitis B virus [5]): Dose-Dependent Effect
